From ChEMBL document CHEMBL3608202, “Biarylmethoxy 2-nitroimidazooxazine antituberculosis agents: Effects of proximal ring substitution and linker reversal on metabolism and efficacy” (Bioorg Med Chem Lett, 2015)
pIC50: −log10 of the molar value. In brackets after ≈: the same amount, converted by molar mass.

Legend:
[1] = test system: Mycobacterium tuberculosis; test: Antimycobacterial activity against Mycobacterium tuberculosis H37Rv after 8 days by MABA assay; assay type: functional; settings: 192 h
[2] = test system: Mycobacterium tuberculosis; test: Antimycobacterial activity against Mycobacterium tuberculosis H37Rv after 11 days by LORA assay; assay type: functional; settings: 264 h
[3] = Metabolic stability in human liver microsomes assessed as compound remaining after 1 hr; assay type: ADME; settings: read-out: Stability
[4] = Metabolic stability in CD1 mouse liver microsomes assessed as compound remaining after 1 hr; assay type: ADME; settings: read-out: Stability
Vero = test: Cytotoxicity against African green monkey Vero cells after 72 hrs; assay type: cell-based; settings: Chlorocebus sabaeus
[5] = test system: Mycobacterium tuberculosis; test: Antimycobacterial activity against Mycobacterium tuberculosis infected in mouse assessed as fold reduction of colony forming units in lungs at 100 mg/kg, po administered for 5 days a week for 3 weeks beginning on day 11 post-infection relative to pretomanid; assay type: functional
[6] = test system: Mycobacterium tuberculosis; test: Antimycobacterial activity against Mycobacterium tuberculosis infected in mouse assessed as fold reduction of colony forming units in lungs at 100 mg/kg, po administered for 5 days a week for 3 weeks beginning on day 70 post-infection relative to control; assay type: functional
Plasma = test: AUC (0 to infinity) in CD1 mouse plasma at 40 mg/kg, po; assay type: ADME, organism-based; parameters: dose 40 mg/kg, route oral, time infinity; settings: in vivo
[7] = Cmax in CD1 mouse plasma at 40 mg/kg, po; assay type: ADME, organism-based; parameters: dose 40 mg/kg, route oral
[8] = Half life in CD1 mouse plasma at 40 mg/kg, po; assay type: ADME, organism-based
Lung = test: AUC (0 to infinity) in CD1 mouse lung at 40 mg/kg, po; assay type: ADME, organism-based; parameters: dose 40 mg/kg, time infinity, route oral; settings: in vivo
[9] = Cmax in CD1 mouse lung at 40 mg/kg, po; assay type: ADME, organism-based; parameters: dose 40 mg/kg, route oral
[10] = Half life in CD1 mouse lung at 40 mg/kg, po; assay type: ADME, organism-based
[11] = Ratio of AUC (0 to infinity) in CD1 mouse lung to AUC (0 to infinity) in CD1 mouse plasma at 40 mg/kg, po; assay type: ADME, organism-based; settings: read-out: Ratio AUC
[12] = test system: Mycobacterium tuberculosis; test: Ratio of pretomanid MIC90 to compound MIC90 for Mycobacterium tuberculosis H37Rv after 8 days by MABA assay; assay type: functional
[13] = test system: Mycobacterium tuberculosis; test: Ratio of pretomanid MIC90 to compound MIC90 for Mycobacterium tuberculosis H37Rv after 11 days by LORA assay; assay type: functional

Row | Structure (SMILES) | MIC90 [1] [µM] | MIC90 [2] [µM] | remaining at 1 h [3] [%] | remaining at 1 h [4] [%] | pIC50 (Vero) | further results
1 | O=[N+]([O-])c1cn2c(n1)OC[C@@H](OCc1ccc(-c3ccc(OC(F)(F)F)cc3)cc1C(F)(F)F)C2 | 0.65 (≈ 0.327 µg/mL) | 2.4 (≈ 1.21 µg/mL) | 100 | 96 | < 3.89 | –
2 | O=[N+]([O-])c1cn2c(n1)OC[C@@H](OCc1ccc(-c3ccc(OC(F)(F)F)cc3)cc1Cl)C2 | 0.17 (≈ 0.0799 µg/mL) | 1.6 (≈ 0.752 µg/mL) | 99 | 100 | < 3.89 | Ratio [5]: 2.1
3 | O=[N+]([O-])c1cn2c(n1)OC[C@@H](OCc1ccc(-c3ccc(OC(F)(F)F)cc3)c(Cl)c1)C2 | 0.21 (≈ 0.0987 µg/mL) | 1.5 (≈ 0.705 µg/mL) | – | – | < 3.89 | –
4 | O=[N+]([O-])c1cn2c(n1)OC[C@@H](OCc1c(Cl)cc(-c3ccc(OC(F)(F)F)cc3)cc1Cl)C2 | 0.62 (≈ 0.313 µg/mL) | 11 (≈ 5.55 µg/mL) | 98 | 93 | < 3.89 | –
5 | O=[N+]([O-])c1cn2c(n1)OC[C@@H](OCc1ccc(-c3ccc(OC(F)(F)F)cc3)cc1F)C2 | 0.017 (≈ 0.00771 µg/mL) | 1.2 (≈ 0.544 µg/mL) | 93 | 85 | < 3.89 | Ratio [5]: 33; Ratio [6]: 2.2; AUC (Plasma): 202 µg/h/mL; Cmax [7]: 6700 ng/mL; half-life [8]: 22.3 h; AUC (Lung): 549 µg/h/mL; Cmax [9]: 12100 ng/mL; half-life [10]: 28.1 h; Kp [11]: 2.7
6 | O=[N+]([O-])c1cn2c(n1)OC[C@@H](OCc1ccc(-c3ccc(C(F)(F)F)cn3)cc1F)C2 | 0.055 (≈ 0.0241 µg/mL) | 2.3 (≈ 1.01 µg/mL) | 90 | 77 | < 3.89 | Ratio [5]: 51
7 | O=[N+]([O-])c1cn2c(n1)OC[C@@H](OCc1ccc(-c3ccc(C(F)(F)F)nc3)cc1F)C2 | 0.13 (≈ 0.057 µg/mL) | 0.68 (≈ 0.298 µg/mL) | 96 | 78 | < 3.89 | Ratio [5]: 13
8 | O=[N+]([O-])c1cn2c(n1)OC[C@@H](OCc1ccc(-c3ccc(OC(F)(F)F)cc3)c(F)c1)C2 | 0.055 (≈ 0.0249 µg/mL) | 0.51 (≈ 0.231 µg/mL) | – | – | < 3.89 | –
9 | O=[N+]([O-])c1cn2c(n1)OC[C@@H](OCc1ccc(-c3ccc(C(F)(F)F)nc3)c(F)c1)C2 | 0.25 (≈ 0.11 µg/mL) | 0.9 (≈ 0.395 µg/mL) | – | – | < 3.89 | –
10 | O=[N+]([O-])c1cn2c(n1)OC[C@@H](OCc1c(F)cc(-c3ccc(OC(F)(F)F)cc3)cc1F)C2 | 0.06 (≈ 0.0283 µg/mL) | 1.5 (≈ 0.707 µg/mL) | 95 | 94 | < 3.89 | Ratio [5]: 0.98
11 | O=[N+]([O-])c1cn2c(n1)OC[C@@H](OCc1c(F)cc(-c3ccc(C(F)(F)F)nc3)cc1F)C2 | 0.35 (≈ 0.16 µg/mL) | 2.9 (≈ 1.32 µg/mL) | – | – | 4.37 | –
12 | N#Cc1cc(-c2ccc(OC(F)(F)F)cc2)ccc1CO[C@@H]1COc2nc([N+](=O)[O-])cn2C1 | 0.053 (≈ 0.0244 µg/mL) | 0.45 (≈ 0.207 µg/mL) | 91 | 88 | < 3.89 | Ratio [5]: 2.9
13 | N#Cc1cc(-c2ccc(C(F)(F)F)nc2)ccc1CO[C@@H]1COc2nc([N+](=O)[O-])cn2C1 | 0.28 (≈ 0.125 µg/mL) | 1.1 (≈ 0.49 µg/mL) | – | – | < 3.89 | –
14 | O=[N+]([O-])c1cn2c(n1)OC[C@@H](OCc1ccc(-c3ccc(OC(F)(F)F)cc3)cc1OC(F)(F)F)C2 | 0.45 (≈ 0.234 µg/mL) | 7.5 (≈ 3.9 µg/mL) | 97 | 100 | < 3.89 | –
15 | COc1cc(-c2ccc(OC(F)(F)F)cc2)ccc1CO[C@@H]1COc2nc([N+](=O)[O-])cn2C1 | 0.64 (≈ 0.298 µg/mL) | 5.5 (≈ 2.56 µg/mL) | 88 | 87 | < 3.89 | –
16 | O=[N+]([O-])c1cn2c(n1)OC[C@@H](OCc1ccc(-c3ccc(OC(F)(F)F)cc3)c[n+]1[O-])C2 | 0.05 (≈ 0.0226 µg/mL) | 32 (≈ 14.5 µg/mL) | – | – | < 3.89 | –
17 | O=[N+]([O-])c1cn2c(n1)OCC(COc1ccc(OC(F)(F)F)cc1)C2 (stereo unspecified) | – | – | – | – | < 3.89 | –

Row | Structure (SMILES) | MIC90 [1] [µM] | MIC90 [2] [µM] | remaining at 1 h [3] [%] | remaining at 1 h [4] [%] | pIC50 (Vero) | further results
18 | O=[N+]([O-])c1cn2c(n1)OC[C@@H](COc1ccc(OC(F)(F)F)cc1)C2 | 0.23 (≈ 0.0826 µg/mL) | 1.9 (≈ 0.683 µg/mL) | 91 | 80 | < 3.89 | Ratio [5]: 0.7; Ratio [12]: 2; Ratio [13]: 5
19 | O=[N+]([O-])c1cn2c(n1)OC[C@H](COc1ccc(OC(F)(F)F)cc1)C2 | 0.5 (≈ 0.18 µg/mL) | 9 (≈ 3.23 µg/mL) | 90 | 72 | < 3.89 | Ratio [5]: 0.41; Ratio [12]: 2; Ratio [13]: 5
20 | O=[N+]([O-])c1cn2c(n1)OCC(COCc1ccc(OC(F)(F)F)cc1)C2 (stereo unspecified) | – | – | 71 | 41 | 4.34 | –
21 | O=[N+]([O-])c1cn2c(n1)OCC(COc1ccc(-c3ccc(OC(F)(F)F)cc3)cc1)C2 (stereo unspecified) | 0.14 (≈ 0.061 µg/mL) | > 128 | 100 | 93 | < 3.89 | Ratio [5]: 2
22 | O=[N+]([O-])c1cn2c(n1)OCC(COc1ccc(-c3ccc(C(F)(F)F)cc3)cc1)C2 (stereo unspecified) | 0.035 (≈ 0.0147 µg/mL) | 100 (≈ 41.9 µg/mL) | – | – | < 3.89 | –
23 | O=[N+]([O-])c1cn2c(n1)OCC(COc1ccc(-c3ccc(F)cc3)cc1)C2 (stereo unspecified) | 0.03 (≈ 0.0111 µg/mL) | 108 (≈ 39.9 µg/mL) | – | – | < 3.89 | –
24 | O=[N+]([O-])c1cn2c(n1)OCC(COc1ccc(-c3ccc(OC(F)(F)F)cc3)cn1)C2 (stereo unspecified) | 0.045 (≈ 0.0196 µg/mL) | 100 (≈ 43.6 µg/mL) | – | – | < 3.89 | –
25 | O=[N+]([O-])c1cn2c(n1)OCC(COc1ccc(-c3ccc(C(F)(F)F)cc3)cn1)C2 (stereo unspecified) | 0.04 (≈ 0.0168 µg/mL) | 109 (≈ 45.8 µg/mL) | – | – | < 3.89 | –
26 | O=[N+]([O-])c1cn2c(n1)OCC(COc1ccc(-c3ccc(F)cc3)cn1)C2 (stereo unspecified) | 0.03 (≈ 0.0111 µg/mL) | 25 (≈ 9.26 µg/mL) | – | – | < 3.89 | –
27 | O=[N+]([O-])c1cn2c(n1)OCC(COc1ccc(-c3ccc(OC(F)(F)F)cc3)nc1)C2 (stereo unspecified) | 0.15 (≈ 0.0655 µg/mL) | 6.9 (≈ 3.01 µg/mL) | – | – | < 3.89 | –
28 | O=[N+]([O-])c1cn2c(n1)OCC(COc1ccc(-c3ccc(C(F)(F)F)cc3)nc1)C2 (stereo unspecified) | 0.22 (≈ 0.0925 µg/mL) | 1.3 (≈ 0.546 µg/mL) | – | – | < 3.89 | –
29 | O=[N+]([O-])c1cn2c(n1)OCC(COc1ccc(-c3ccc(F)cc3)nc1)C2 (stereo unspecified) | 0.15 (≈ 0.0556 µg/mL) | 2 (≈ 0.741 µg/mL) | – | – | < 3.89 | –
30 | O=[N+]([O-])c1cn2c(n1)OCC(COCc1ccc(-c3ccc(OC(F)(F)F)cc3)cc1)C2 (stereo unspecified) | 0.3 (≈ 0.135 µg/mL) | > 128 | – | – | < 3.89 | –
31 | O=[N+]([O-])c1cn2c(n1)OCC(COCc1ccc(-c3ccc(C(F)(F)F)cc3)cc1)C2 (stereo unspecified) | 0.49 (≈ 0.212 µg/mL) | > 128 | – | – | 4.42 | –
32 | O=[N+]([O-])c1cn2c(n1)OCC(COCc1ccc(-c3ccc(F)cc3)cc1)C2 (stereo unspecified) | 0.47 (≈ 0.18 µg/mL) | 7.9 (≈ 3.03 µg/mL) | – | – | 4.62 | –
33 | O=[N+]([O-])c1cn2c(n1)OC[C@@H](OCc1ccc(-c3ccc(OC(F)(F)F)cc3)cc1)C2 | – | – | – | – | – | AUC (Plasma): 198 µg/h/mL; AUC (Lung): 218 µg/h/mL
34 | O=[N+]([O-])c1cn2c(n1)OC[C@@H](OCc1ccc(OC(F)(F)F)cc1)C2 [PRETOMANID] | 0.5 (≈ 0.18 µg/mL) | 2.6 (≈ 0.934 µg/mL) | 82 | – | – | –
